Several values for one entry are separate records, joined by “and”; a condition that tells them apart may be missing. Equal values may be shown once.
How the values were obtained:
[1] = target: T1, human Branched Chain Amino Acid Aminotransferase cytosolic form (hBCATc) (Homo sapiens, UniProt P54687); test: In vitro coupled enzyme assay (glutamate dehydrogenase, NADH formation), human BCATc; format: biochemical; conditions: recombinant human BCATc, 37° C., 25 mM phosphate buffer pH 7.8; several values in a cell = repeat determinations; read-out: RhBCATc
T1 construct: made in house; host or cells: E. coli BL21(DE3)
T1 sequence (P54687 1-386): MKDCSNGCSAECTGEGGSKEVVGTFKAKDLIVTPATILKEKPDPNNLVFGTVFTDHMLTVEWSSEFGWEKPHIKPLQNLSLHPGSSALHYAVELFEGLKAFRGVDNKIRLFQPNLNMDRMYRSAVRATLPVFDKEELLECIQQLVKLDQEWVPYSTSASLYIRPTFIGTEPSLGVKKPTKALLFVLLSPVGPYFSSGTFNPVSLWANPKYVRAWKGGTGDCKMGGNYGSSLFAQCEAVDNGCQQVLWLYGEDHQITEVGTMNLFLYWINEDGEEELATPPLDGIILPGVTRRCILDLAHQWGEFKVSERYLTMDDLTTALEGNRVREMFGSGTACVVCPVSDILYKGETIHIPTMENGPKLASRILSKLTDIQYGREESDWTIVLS
How it was run: (§1)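 At 37 °C in 25 mM phosphate pH 7.8 with 2 mM DTT, 1.25 μg His-tag-purified E. coli-expressed BCAT transaminated 750 μM L-leucine with 500 μM α-ketoglutarate and 10 μM PLP. Glutamate was coupled via glutamate dehydrogenase (1 mM NAD+, 4 mM ADP) to NADH formation at 340 nm. Compounds were added in DMSO up to 5% v/v.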

rat BCAT cytosolic form = target: T2, rat BCAT cytosolic form (Rattus norvegicus, UniProt P54690); test: In vitro coupled enzyme assay (glutamate dehydrogenase, NADH formation), rat BCATc; format: biochemical; conditions: recombinant rat BCATc, 37° C., 25 mM phosphate buffer pH 7.8; several values in a cell = repeat determinations; read-out: RrBCATc
T2 construct: made in house; host or cells: E. coli BL21(DE3)
T2 sequence (P54690 1-411): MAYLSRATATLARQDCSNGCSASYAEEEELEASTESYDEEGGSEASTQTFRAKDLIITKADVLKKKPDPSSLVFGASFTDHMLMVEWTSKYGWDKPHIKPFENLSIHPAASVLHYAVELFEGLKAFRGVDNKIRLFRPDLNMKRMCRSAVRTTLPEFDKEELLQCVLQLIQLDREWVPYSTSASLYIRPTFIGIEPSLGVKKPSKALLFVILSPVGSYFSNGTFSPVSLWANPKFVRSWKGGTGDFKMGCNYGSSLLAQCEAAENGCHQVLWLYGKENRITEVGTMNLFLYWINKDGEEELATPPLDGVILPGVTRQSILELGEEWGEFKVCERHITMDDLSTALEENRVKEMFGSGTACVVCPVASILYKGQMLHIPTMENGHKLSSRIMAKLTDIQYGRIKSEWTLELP
How it was run: as §1

SMILES	melting point	IC50 [1]	IC50 (rat BCAT cytosolic form)
O=C(NNS(=O)(=O)c1cc(C(F)(F)F)cc(C(F)(F)F)c1)c1ccc2oc3ccccc3c2c1 [Example 32, 2-Dibenzofurancarboxylic acid, 2-[[3,5-bis(trifluoromethyl)phenyl]sulfonyl]-hydrazide]	244.7 to 245.5 °C	> 100 µM	> 100 µM
O=C(NNS(=O)(=O)c1cccc(Br)c1)c1cc2cc(Cl)cc(Cl)c2o1 [Example 74, 2-Benzofurancarboxylic acid, 5,7-dichloro 2-[(3-bromophenyl)sulfonyl]-hydrazide]	248.5 to 248.8 °C	64.5 µM	3.71 µM
O=C(NNS(=O)(=O)c1cccc(Cl)c1)c1cc2cc(Cl)ccc2o1 [Example 43, 2-Benzofurancarboxylic acid, 5-chloro-2-[(3-chlorophenyl)sulfonyl]hydrazide]	202.9 to 205.2 °C	1.8 µM	0.47 µM
N#Cc1cccc(S(=O)(=O)NNC(=O)c2cc3cc(Cl)ccc3o2)c1 [Example 27, 2-Benzofurancarboxylic acid, 5-chloro-, 2-[(3-cyanophenyl)sulfonyl]hydrazide]	208.5 to 210 °C	171 µM	45.2 µM
Cc1ccccc1S(=O)(=O)NNC(=O)c1cc2cc(Cl)cc(Cl)c2o1 [Example 71, 2-Benzofurancarboxylic acid, 5,7-dichloro 2-[(2-methylphenyl)sulfonyl]hydrazide]	212 to 214 °C	6.57 µM	0.88 µM
O=C(NNS(=O)(=O)c1ccccc1Cl)c1ccc2oc3ccccc3c2c1 [Example 17, 2-Dibenzofurancarboxylic acid 2-[(2-chlorophenyl)sulfonyl]hydrazide]	235 to 236 °C	11.4 µM	1.1 µM and 0.54 µM

More lines, now with the values ahead:

melting point	IC50 [1]	IC50 (rat BCAT cytosolic form)	SMILES
203.6 to 204.4 °C	13 µM	2.8 µM	O=C(NNS(=O)(=O)c1ccccc1C(F)(F)F)c1cnc2ccccc2c1 [Example 135, 3-Quinolinecarboxylic acid, 2-[(2-trifluoromethylphenyl)sulfonyl]hydrazide]
234.5 to 236.1 °C	11.2 µM	1.51 µM	O=C(NNS(=O)(=O)c1ccccc1OC(F)(F)F)c1cc2cc(Cl)cc(Cl)c2o1 [Example 76, 2-Benzofurancarboxylic acid, 5,7-dichloro 2-[[2-(trifluoromethoxy)phenyl]-sulfonyl]hydrazide]
199.5 to 200.5 °C	2.29 µM	0.21 µM	COc1cccc(S(=O)(=O)NNC(=O)c2ccc3oc4ccccc4c3c2)c1 [Example 39, 2-Dibenzofurancarboxylic acid 2-[(3-methoxyphenyl)sulfonyl]hydrazide]
181 to 183 °C	17.9 µM	3.3 µM	O=C(NNS(=O)(=O)c1ccccc1)c1ccc2c(c1)CCO2 [Example 149, 2,3-Dihydro-benzofuran-5-carboxylic acid 2-(phenylsulfonyl)hydrazide]
